Laboratory results: PMC4667193 (Scientific Reports, 2015)

Columns and labels:
Format in all cases: cell-based
Rat M2 mAChR = molecular target: T1, Rat M2 mAChR (Rattus norvegicus, UniProt P10980); test: calcium mobilization assay in CHO cells (Gqi5); details: rat M2, 100 μM AEME on ACh curve
T1 construct: host or cells: CHO (CHO-K1) cells
T1 sequence (P10980 1-466): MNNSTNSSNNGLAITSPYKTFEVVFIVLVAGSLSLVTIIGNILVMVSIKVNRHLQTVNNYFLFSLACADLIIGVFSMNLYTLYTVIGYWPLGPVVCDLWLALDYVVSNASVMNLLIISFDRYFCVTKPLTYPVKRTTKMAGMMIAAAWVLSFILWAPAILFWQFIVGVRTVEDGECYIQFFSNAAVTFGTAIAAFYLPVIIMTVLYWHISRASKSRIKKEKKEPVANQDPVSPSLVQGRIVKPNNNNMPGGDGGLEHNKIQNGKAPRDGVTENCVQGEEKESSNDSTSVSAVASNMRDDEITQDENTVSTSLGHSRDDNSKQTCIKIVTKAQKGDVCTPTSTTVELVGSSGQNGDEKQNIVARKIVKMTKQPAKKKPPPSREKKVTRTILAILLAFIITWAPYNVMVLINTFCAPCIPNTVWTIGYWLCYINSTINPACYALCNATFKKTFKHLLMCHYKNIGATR
Protocol: Chinese hamster ovary (CHO) cells individually and stably expressing individual rat mAChRs (rM1 to rM5 mAChRs) were purchased from the American Type Culture Collection (ATCC) and cultured according to ATCC recommendations. To generate stable rM2 and rM4 cell lines for use in calcium mobilization assays, rM2 and rM4-expressing cells were stably transfected with a chimeric G protein (Gqi5) using Lipofectamine 2000 (Invitrogen). rM2 and rM4 cells were grown in Ham’s F-12 medium containing 10% heat-inactivated fetal bovine serum (FBS), 2 mM GlutaMAX (Gibco®), 20 mM HEPES, 500 μg/mL G418 sulfate, 200 μg/mL hygromycin B and an antibiotic-antimycotic solution (Gibco®). rM1, rM3 and rM5 mAChR-CHO cells were grown in the same medium without hygromycin B[48]. CHO cells were cultured in a 150 mm-diameter cell culture-treated dishes (Corning®) at 37 °C and 5% CO2 until complete confluence.
CHO cells expressing rM1, rM3 and rM5 were plated at 4 × 10^4 cells per well, whereas rM2 and rM4 were plated at 6 × 10^4 cells per well, in standard growth media (as described previously under “cell culture”) in 96-well plates 24 hours before assay and were incubated overnight at 37 °C in 5% CO2. […] Cells were incubated for 45 minutes (37 °C, 5% CO2) for dye loading. […] AEME concentration-response curves were determined in single-add experiments. […]

[1] = system: rat primary hippocampal cell culture; test: MTT viability assay, AEME-induced neurotoxicity; details: 10^−3 M AEME, 24 hours, % of control
Protocol: Neuronal viability was evaluated in the hippocampal cell culture using the 3-(4,5-dimethylthiazol-2-yl)-2,5-diphenyltetrazolium bromide (MTT; Sigma) reduction assay, with some modification. Briefly, after 24 hours of incubation with 10^−3 M AEME in the absence and in the presence of 10 nM pirenzepine hydrochloride (M1 selective antagonist; Sigma), 10 nM p-F-HHSiD (M3 selective antagonist; Sigma) and the specific inhibitor of different isoforms of PLC U73122 (10 nM)[55] (Sigma), all the medium was removed, and 100 μL of MTT solution, containing 5 mg/mL MTT in PBS and neurobasal medium without phenol red (1:9, v/v) were added. After 3 hours of incubation with MTT at 37 °C in a humidified atmosphere of 5% CO2, the MTT solution was removed and 200 μL of dimethyl sulfoxide was added to each well. After 30 minutes of shaking, the absorbance was measured at 570 nm in a multiwell plate reader (BioTek Synergy H1 Hybrid Reader). Potassium chloride (250 mM) was used as a positive control of neuronal death. Muscarinic antagonists, as well as the iPLC, were added 30 minutes prior to incubation with AEME. The antagonist concentration used was near the pKi[25][56]. A control containing 0.002% DMSO was used, since the iPLC stock solution was previously dissolved in this solvent. The assay was performed in quadruplicate, and the results were expressed as a percentage of the control value.

Rat M1 mAChR = molecular target: T2, Rat M1 mAChR (Rattus norvegicus, UniProt P08482); test: calcium mobilization assay in CHO cells
T2 construct: host or cells: CHO (CHO-K1) cells
T2 sequence (P08482 1-460): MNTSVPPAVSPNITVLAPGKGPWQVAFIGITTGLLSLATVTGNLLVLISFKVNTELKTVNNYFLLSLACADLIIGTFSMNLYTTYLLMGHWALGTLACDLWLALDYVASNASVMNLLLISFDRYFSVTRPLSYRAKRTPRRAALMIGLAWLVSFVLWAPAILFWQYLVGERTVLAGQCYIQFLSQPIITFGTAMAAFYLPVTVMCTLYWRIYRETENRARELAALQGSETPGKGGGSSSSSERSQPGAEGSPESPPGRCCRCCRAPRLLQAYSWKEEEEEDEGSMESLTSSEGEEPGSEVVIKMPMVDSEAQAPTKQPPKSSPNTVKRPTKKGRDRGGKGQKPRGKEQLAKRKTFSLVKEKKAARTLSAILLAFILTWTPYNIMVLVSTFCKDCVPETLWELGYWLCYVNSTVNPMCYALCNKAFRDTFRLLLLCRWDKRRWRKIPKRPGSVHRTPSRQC
Protocol: (§1) CHO cells expressing rM1, rM3 and rM5 were plated at 4 × 10^4 cells per well, whereas rM2 and rM4 were plated at 6 × 10^4 cells per well, in standard growth media (as described previously under “cell culture”) in 96-well plates 24 hours before assay and were incubated overnight at 37 °C in 5% CO2. […] Cells were incubated for 45 minutes (37 °C, 5% CO2) for dye loading. Fluo4-AM dye was removed, cells were washed and replaced with 40 μL of calcium assay buffer. AEME concentration-response curves were determined in single-add experiments. […] All compounds were dissolved in dimethyl sulfoxide (DMSO) and then in calcium assay buffer to obtain a final DMSO concentration of 0.3%. […] These values were fit using GraphPad Prism version 5.0 to determine EC50 values and Schild slope and pA2 in the Schild analyses.

Rat M3 mAChR = molecular target: T3, Rat M3 mAChR (Rattus norvegicus, UniProt P08483); test: calcium mobilization assay in CHO cells
T3 construct: host or cells: CHO (CHO-K1) cells
Protocol: as §1

T3 sequence (P08483 whole entry): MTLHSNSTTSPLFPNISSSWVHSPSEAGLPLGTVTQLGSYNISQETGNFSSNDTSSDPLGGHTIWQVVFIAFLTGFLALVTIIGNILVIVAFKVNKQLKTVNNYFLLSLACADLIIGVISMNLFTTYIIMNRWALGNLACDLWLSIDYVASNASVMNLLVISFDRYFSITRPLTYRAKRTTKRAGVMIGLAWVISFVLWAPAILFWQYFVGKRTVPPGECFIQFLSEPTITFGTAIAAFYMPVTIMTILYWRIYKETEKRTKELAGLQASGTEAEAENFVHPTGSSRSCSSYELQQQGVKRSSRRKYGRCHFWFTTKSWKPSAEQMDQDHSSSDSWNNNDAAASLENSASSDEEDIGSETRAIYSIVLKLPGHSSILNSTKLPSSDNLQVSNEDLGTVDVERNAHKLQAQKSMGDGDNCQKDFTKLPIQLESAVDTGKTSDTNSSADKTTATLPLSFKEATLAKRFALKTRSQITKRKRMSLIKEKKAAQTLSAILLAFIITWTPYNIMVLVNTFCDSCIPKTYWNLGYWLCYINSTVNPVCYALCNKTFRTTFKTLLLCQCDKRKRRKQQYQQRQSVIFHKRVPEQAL

## COC(=O)C1=CC[C@@H]2CC[C@H]1N2C [AEME, anhydroecgonine methyl ester]
Rat M2 mAChR
  mechanism of action: antagonized the effects of ACh
[1]
  viable cells: 67.2%
Rat M1 mAChR; rat M1
  mechanism of action: partial agonist-activity
Rat M1 mAChR; rat M1, agonist mode
  % of the maximum acetylcholine response: 38.3%
Rat M1 mAChR; rat M1, agonist mode (single-add)
  EC50: > 100 µM
Rat M3 mAChR; rat M3
  mechanism of action: partial agonist-activity
Rat M3 mAChR; rat M3, agonist mode
  % of the maximum acetylcholine response: 27.2%
Rat M3 mAChR; rat M3, agonist mode (single-add)
  EC50: > 100 µM
